The results in this text go back to patent publication US9155759B2, “Heterochain aliphatic poly-N-oxide copolymers and vaccinating agents and drugs based thereon” (priority 2010, dated 2015).

Data set [1] is described as follows: Antidotal properties at acute CuSo4 poisoning. The format is in vivo. On the procedure: The investigation was done in vivo at an acute CuSo4 poisoning. The preparations are administered to 7 groups of animals of which a normal saline solution is administered to the animals of the first group, CuSo4 alone in the doses fatal for animals (mg/kg): 12.5; 25.0; and 50.0 to the animals of groups 2÷4, and the similar CuSo4 doses in combination with the similar doses of CP—NO-3-1 are administered to the animals of groups 5÷7.
The results of investigations presented in table 4 testify to a pronounced antidotal effect of CP—NO.

The subject of data set [2] is erythrocytes. Description: Quartz (SiO2) erythrocyte hemolysis model. It is filed as cell-based, Human. The following applies: for Protection from hemolysis / Hemolysis: SiO2 3 mg; for Hemolysis: 1 hour, 37° C. On the procedure:
The investigation was done on a model of quartz (SiO2) erythrocyte hemolysis using the international standard of quartz dust DQ-12 having a dispersion degree of less than 3 μm according to the A. David method (1976). Human blood was taken with heparin, erythrocytes were thrice washed in a 10-fold volume of a water-white Henx solution followed by centrifuging at 3000 rpm for 10 min. An erythrocyte suspension was resuspended to a 4% concentration ([…]). All investigations were done in 3÷5 parallel assays. The samples of SiO2 and erythrocytes were taken under continuous agitation on a magnetic agitator.
1 ml of a 4% erythrocyte suspension was mixed with 1 ml of the investigated preparation adding 1 ml of 0.3% (3 mg/ml) of a SiO2 suspension and incubated for 1 hour at a temperature of 37° C. carefully shaking the samples every 5 minutes. After incubation all samples were added with 7 ml of a buffer, it was centrifuged and the supernatant was photometered on SF-26 at 540 nm. The results of hemolysis were expressed in percents taking as 100% the content of hemoglobin in the samples of 1 ml of a 4% erythrocyte suspension with 9 ml of distilled water. The protective effect of the investigated preparations was calculated according to the formula and expressed in percents: […]
E540 K SiO2 is extinction of the control samples—a “water-silicon-erythrocytes” test tube.
A property of CP—NO to protect erythrocytes from hemolysis was compared to high molecular plasma-substituting solutions of polyvinylpyrrolidone (hemodez), dextran (polyglucin) and albumin. As a buffer, a water-white Henx solution was used.

Marks after values point to notes of the source that are not given here.

As to `O=S(=O)([O-])[O-].[Cu+2]` [CuSO4], the “% of animal death at days 1-2” value in data set [1] (CuSO4 12.5 mg/kg alone), in data set [1] (CuSO4 25.0 mg/kg alone) and in data set [1] (CuSO4 50.0 mg/kg alone) was 100% each time. In addition, the “Animal survivability at day 30” value in data set [1] (CuSO4 12.5 mg/kg alone), in data set [1] (CuSO4 25.0 mg/kg alone) and in data set [1] (CuSO4 50.0 mg/kg alone) was 0% in each case.
For Albumin, the “protective properties against hemolysis (in words)” value in data set [2] (comparison detoxicants) is reported as “a pronounced effect is achieved only in high doses”. Also, in data set [2] (dose 100 μg/ml), the Protection from hemolysis is listed as 18.0% and the Hemolysis is on record as 82.0%. Also, in data set [2] (dose 1000 μg/ml), the Protection from hemolysis is given as 86.5* % and the Hemolysis is 13.5* %.
